Molecules are shown by their SMILES.

The subject of this assay is MV-4-11 cells. Nature of the assay: Gene expression microarray analysis (Affymetrix PrimeView) and GSEA. The format is cell-based, human. Also on record: RFU PODN (11730768_x_at) / Fold change /veh PODN (11730768_x_at) / RFU LINC00158 (11744669_a_at) / Fold change /veh LINC00158 (11744669_a_at) / RFU DUSP10 (11751237_a_at) / Fold change /veh DUSP10 (11751237_a_at) / RFU ID3 (11757404_x_at) / Fold change /veh ID3 (11757404_x_at) / RFU PLEKHG5 (11737974_s_at) / Fold change /veh PLEKHG5 (11737974_s_at) / RFU LRRC4B (11730491_at) / Fold change /veh LRRC4B (11730491_at) / RFU GIMAP4 (11747438_a_at) / Fold change /veh GIMAP4 (11747438_a_at) / RFU KRT8 (11758183_x_at) / Fold change /veh KRT8 (11758183_x_at) / RFU CNN1 (11734310_a_at) / Fold change /veh CNN1 (11734310_a_at) / RFU VPS37D (11726825_at) / Fold change /veh VPS37D (11726825_at) / RFU C10orf10 (11716522_x_at) / Fold change /veh C10orf10 (11716522_x_at) / RFU KIR2DL2 /// KIR2DL4 /// KIR2DL5A /// KIR2DL5B /// KIR2DS1 /// KIR2DS2 /// KIR2DS3 /// KIR2DS4 /// KIR3DL3 /// KIR3DL3 /// KIR3DS1 (11738374_at) / Fold change /veh KIR2DL2 /// KIR2DL4 /// KIR2DL5A /// KIR2DL5B /// KIR2DS1 /// KIR2DS2 /// KIR2DS3 /// KIR2DS4 /// KIR3DL3 /// KIR3DL3 /// KIR3DS1 (11738374_at) / RFU C1QL1 (11718748_at) / Fold change /veh C1QL1 (11718748_at) / RFU TMPRSS4 (11747572_a_at) / Fold change /veh TMPRSS4 (11747572_a_at) / RFU HAMP (11756126_x_at) / Fold change /veh HAMP (11756126_x_at) / RFU RNFT2 (11725882_a_at) / Fold change /veh RNFT2 (11725882_a_at) / RFU NR4A2 (11747474_a_at) / Fold change /veh NR4A2 (11747474_a_at) / RFU ABCC12 (11746883_a_at) / Fold change /veh ABCC12 (11746883_a_at) / RFU TMEM136 (11760407_x_at) / Fold change /veh TMEM136 (11760407_x_at) / RFU CLDN22 /// WWC2 (11732394_at) / Fold change /veh CLDN22 /// WWC2 (11732394_at) / RFU HLA-DPB1 (11760878_x_at) / Fold change /veh HLA-DPB1 (11760878_x_at) / RFU SPINT1 (11716480_a_at) / Fold change /veh SPINT1 (11716480_a_at) / RFU GAP43 (11754022_s_at) / Fold change /veh GAP43 (11754022_s_at) / RFU A4GNT (11735810_at) / Fold change /veh A4GNT (11735810_at) / RFU PRB3 (11715151_x_at) / Fold change /veh PRB3 (11715151_x_at) / RFU TUBB4B (11761932_at) / Fold change /veh TUBB4B (11761932_at) / RFU CAPN14 (11732068_a_at) / Fold change /veh CAPN14 (11732068_a_at) / RFU TMCC2 (11721928_a_at) / Fold change /veh TMCC2 (11721928_a_at) / RFU IRGQ (11745062_a_at) / Fold change /veh IRGQ (11745062_a_at) / RFU FAM174B (11720279_a_at) / Fold change /veh FAM174B (11720279_a_at) / RFU TMPRSS4 (11748680_a_at) / Fold change /veh TMPRSS4 (11748680_a_at) / RFU FAM212B (11763350_a_at) / Fold change /veh FAM212B (11763350_a_at) / RFU PLEKHG5 (11743358_a_at) / Fold change /veh PLEKHG5 (11743358_a_at) / RFU ZSCAN30 (11745921_a_at) / Fold change /veh ZSCAN30 (11745921_a_at) / RFU CMKLR1 (11741424_a_at) / Fold change /veh CMKLR1 (11741424_a_at) / RFU LOC101060620 /// MAPK8IP1 (11723275_at) / Fold change /veh LOC101060620 /// MAPK8IP1 (11723275_at) / RFU SPTSSB (11747773_x_at) / Fold change /veh SPTSSB (11747773_x_at) / RFU PRSS12 (11739890_at) / Fold change /veh PRSS12 (11739890_at) / RFU BIN1 (11741810_x_at) / Fold change /veh BIN1 (11741810_x_at) / RFU WNT11 (11732464_a_at) / Fold change /veh WNT11 (11732464_a_at) / RFU C10orf10 (11716521_a_at) / Fold change /veh C10orf10 (11716521_a_at) / RFU C5orf56 (11738089_at) / Fold change /veh C5orf56 (11738089_at) / RFU CYB561 (11721691_x_at) / Fold change /veh CYB561 (11721691_x_at) / RFU ANKRD19P (11752326_a_at) / Fold change /veh ANKRD19P (11752326_a_at) / RFU OR2T12 /// OR2T33 /// OR2T8 (11738714_s_at) / Fold change /veh OR2T12 /// OR2T33 /// OR2T8 (11738714_s_at) / RFU VCAN (11748164_a_at) / Fold change /veh VCAN (11748164_a_at) / RFU JSRP1 (11732532_at) / Fold change /veh JSRP1 (11732532_at) / RFU KRTAP10-11 (11738290_x_at) / Fold change /veh KRTAP10-11 (11738290_x_at) / RFU MYO3A (11730013_a_at) / Fold change /veh MYO3A (11730013_a_at) / RFU EBF3 (11725865_a_at) / Fold change /veh EBF3 (11725865_a_at) / RFU CAMK2N1 (11719241_x_at) / Fold change /veh CAMK2N1 (11719241_x_at) / RFU C5orf56 (11738088_a_at) / Fold change /veh C5orf56 (11738088_a_at) / RFU OLFML3 (11715873_a_at) / Fold change /veh OLFML3 (11715873_a_at) / RFU LOC100653217 /// NTM (11731650_a_at) / Fold change /veh LOC100653217 /// NTM (11731650_a_at) / RFU MAPK11 (11762145_a_at) / Fold change /veh MAPK11 (11762145_a_at) / RFU FIZ1 (11724087_x_at) / Fold change /veh FIZ1 (11724087_x_at) / RFU OASL (11726364_x_at) / Fold change /veh OASL (11726364_x_at) / RFU SOX15 (11748057_x_at) / Fold change /veh SOX15 (11748057_x_at) / RFU CD79A (11719716_a_at) / Fold change /veh CD79A (11719716_a_at) / RFU HIST1H1D (11736915_at) / Fold change /veh HIST1H1D (11736915_at) / RFU CASKIN2 (11723855_a_at) / Fold change /veh CASKIN2 (11723855_a_at) / RFU LOC730098 (11760151_x_at) / Fold change /veh LOC730098 (11760151_x_at) / RFU OR4N2 (11742367_at) / Fold change /veh OR4N2 (11742367_at) / RFU PRRT2 (11749266_a_at) / Fold change /veh PRRT2 (11749266_a_at) / RFU SNX32 (11753110_a_at) / Fold change /veh SNX32 (11753110_a_at) / RFU CDHR5 (11726645_a_at) / Fold change /veh CDHR5 (11726645_a_at) / RFU RCAN1 (11760418_a_at) / Fold change /veh RCAN1 (11760418_a_at) / RFU FAM167A (11723789_a_at) / Fold change /veh FAM167A (11723789_a_at) / RFU FAM26E (11764081_at) / Fold change /veh FAM26E (11764081_at) / RFU ISYNA1 (11749810_s_at) / Fold change /veh ISYNA1 (11749810_s_at) / RFU ACY1 (11761880_at) / Fold change /veh ACY1 (11761880_at) / RFU 11764098_at / Fold change /veh 11764098_at / RFU SAMD14 (11745864_x_at) / Fold change /veh SAMD14 (11745864_x_at) / RFU NPB (11741838_a_at) / Fold change /veh NPB (11741838_a_at) / RFU TMPRSS6 (11731388_a_at) / Fold change /veh TMPRSS6 (11731388_a_at) / RFU KRTAP10-2 (11738614_at) / Fold change /veh KRTAP10-2 (11738614_at) / RFU ARHGAP8 /// PRR5-ARHGAP8 (11727945_x_at) / Fold change /veh ARHGAP8 /// PRR5-ARHGAP8 (11727945_x_at) / RFU KRTAP5-7 /// NADSYN1 (11734609_at) / Fold change /veh KRTAP5-7 /// NADSYN1 (11734609_at) / RFU RASL12 (11751679_a_at) / Fold change /veh RASL12 (11751679_a_at) / RFU CDKN2B (11736163_a_at) / Fold change /veh CDKN2B (11736163_a_at) / RFU PRF1 (11729649_at) / Fold change /veh PRF1 (11729649_at) / RFU, ZNF638 /// ZNF638-IT1 / Fold change vs veh, ZNF638 /// ZNF638-IT1 / RFU, PANK3 / Fold change vs veh, PANK3 / RFU, SH3YL1 / Fold change vs veh, SH3YL1 / RFU, ZEB2 / Fold change vs veh, ZEB2 / RFU, NRIP1 / Fold change vs veh, NRIP1 / RFU, PTTG1IP / Fold change vs veh, PTTG1IP / RFU, CAPN2 / Fold change vs veh, CAPN2 / RFU, MED14 / Fold change vs veh, MED14 / RFU, SNORA58 / Fold change vs veh, SNORA58 / RFU, C1orf63 / Fold change vs veh, C1orf63 / RFU, LRRFIP1 / Fold change vs veh, LRRFIP1 / RFU, NDUFAF7 / Fold change vs veh, NDUFAF7 / RFU, SLC12A2 / Fold change vs veh, SLC12A2 / RFU, IBTK / Fold change vs veh, IBTK / RFU, ESF1 / Fold change vs veh, ESF1 / Fold change vs veh, TMEM50B / RFU, TAOK1 / Fold change vs veh, TAOK1 / RFU, ACBD3 / Fold change vs veh, ACBD3 / RFU, TMA16 / Fold change vs veh, TMA16 / RFU, RWDD3 / Fold change vs veh, RWDD3 / RFU, BCAT1 / Fold change vs veh, BCAT1 / RFU, EDEM3 / Fold change vs veh, EDEM3 / RFU, TMEM33 / Fold change vs veh, TMEM33 / RFU, WDR75 / Fold change vs veh, WDR75 / RFU, AHCTF1 / Fold change vs veh, AHCTF1 / RFU, TFRC / Fold change vs veh, TFRC / RFU, ZDHHC17 / Fold change vs veh, ZDHHC17 / RFU, NOM1 / Fold change vs veh, NOM1 / RFU, ARL8B / Fold change vs veh, ARL8B / RFU, ZBTB11 / Fold change vs veh, ZBTB11 / RFU, TAMM41 / Fold change vs veh, TAMM41 / RFU, KIAA1704 /// LOC100996395 / Fold change vs veh, KIAA1704 /// LOC100996395 / RFU, ING1 / Fold change vs veh, ING1 / RFU, TRMT61B / Fold change vs veh, TRMT61B / RFU, FUBP3 / Fold change vs veh, FUBP3 / RFU, TP53 / Fold change vs veh, TP53 / RFU, TNKS2 / Fold change vs veh, TNKS2 / RFU, ZFP14 / Fold change vs veh, ZFP14 / RFU, ACTR2 / Fold change vs veh, ACTR2 / RFU, PPP3R1 / Fold change vs veh, PPP3R1 / RFU, PIK3R1 / Fold change vs veh, PIK3R1 / RFU, HNRNPA1 / Fold change vs veh, HNRNPA1 / RFU, RNF170 / Fold change vs veh, RNF170 / RFU, ZNF28 / Fold change vs veh, ZNF28 / RFU, RNGTT / Fold change vs veh, RNGTT / RFU, OGT / Fold change vs veh, OGT / RFU, BRD1 / Fold change vs veh, BRD1 / RFU, MARS / Fold change vs veh, MARS / RFU, ZNF655 / Fold change vs veh, ZNF655 / RFU, FAHD1 / Fold change vs veh, FAHD1 / RFU, BDP1 / Fold change vs veh, BDP1 / RFU, LRRCC1 / Fold change vs veh, LRRCC1 / RFU, ARID1A / Fold change vs veh, ARID1A / RFU, ZNF146 / Fold change vs veh, ZNF146 / RFU, ZNF330 / Fold change vs veh, ZNF330 / RFU, GPN3 / Fold change vs veh, GPN3 / RFU, C9orf123 / Fold change vs veh, C9orf123 / RFU, N4BP2L2 / Fold change vs veh, N4BP2L2 / RFU, ARFIP1 / Fold change vs veh, ARFIP1 / RFU, FAM179B / Fold change vs veh, FAM179B / RFU, BCL10 / Fold change vs veh, BCL10 / RFU, UHRF1BP1L / Fold change vs veh, UHRF1BP1L / RFU, BET1 / Fold change vs veh, BET1 / RFU, CNOT2 / Fold change vs veh, CNOT2 / RFU, ZNF268 / Fold change vs veh, ZNF268 / Fold change vs veh, ZNF507 / RFU, DGCR2 / Fold change vs veh, DGCR2 / RFU, WDSUB1 / Fold change vs veh, WDSUB1 / Fold change vs veh, HSP90B1 /// MIR3652 / RFU, ADSS / Fold change vs veh, ADSS / RFU, GK / Fold change vs veh, GK / RFU, ZNF148 / Fold change vs veh, ZNF148 / RFU, TAF9 / Fold change vs veh, TAF9 / RFU, SLC1A5 / Fold change vs veh, SLC1A5 / RFU, SLMO2 / Fold change vs veh, SLMO2 / RFU, ABCC4 / Fold change vs veh, ABCC4 / RFU, LOC101060439 /// RAP1B / Fold change vs veh, LOC101060439 /// RAP1B / RFU, RFX7 / Fold change vs veh, RFX7 / RFU, GTPBP10 / Fold change vs veh, GTPBP10 / RFU, CNEP1R1 / Fold change vs veh, CNEP1R1 / RFU, BIVM-ERCC5 /// ERCC5 / Fold change vs veh, BIVM-ERCC5 /// ERCC5 / RFU, ILF3 / Fold change vs veh, ILF3 / RFU 11762660_at / Fold change /veh 11762660_at / RFU VCAN (11757783_s_at) / Fold change /veh VCAN (11757783_s_at) / RFU DDX43 (11728927_at) / Fold change /veh DDX43 (11728927_at) / RFU KRT8 (11758188_x_at) / Fold change /veh KRT8 (11758188_x_at) / RFU NKD1 (11759106_at) / Fold change /veh NKD1 (11759106_at) / RFU SRD5A1 (11742802_a_at) / Fold change /veh SRD5A1 (11742802_a_at) / RFU TPSAB1 /// TPSB2 (11721975_s_at) / Fold change /veh TPSAB1 /// TPSB2 (11721975_s_at) / RFU GSTM3 (11746129_a_at) / Fold change /veh GSTM3 (11746129_a_at) / RFU IL23R (11737362_x_at) / Fold change /veh IL23R (11737362_x_at) / RFU TMEM51 (11727254_a_at) / Fold change /veh TMEM51 (11727254_a_at) / RFU PIWIL2 (11732686_x_at) / Fold change /veh PIWIL2 (11732686_x_at) / RFU ORM1 (11744905_x_at) / Fold change /veh ORM1 (11744905_x_at) / RFU CCDC152 (11743942_at) / Fold change /veh CCDC152 (11743942_at) / RFU ECM1 (11717891_a_at) / Fold change /veh ECM1 (11717891_a_at) / RFU IL23R (11748794_a_at) / Fold change /veh IL23R (11748794_a_at) / RFU TNFAIP8L3 (11732012_x_at) / Fold change /veh TNFAIP8L3 (11732012_x_at) / RFU MBOAT4 (11741988_at) / Fold change /veh MBOAT4 (11741988_at) / RFU 11764193_at / Fold change /veh 11764193_at / RFU TMEM53 (11763286_at) / Fold change /veh TMEM53 (11763286_at) / RFU MAGEB2 (11727129_at) / Fold change /veh MAGEB2 (11727129_at) / RFU TMEM200A (11744735_a_at) / Fold change /veh TMEM200A (11744735_a_at) / RFU CCDC152 (11751479_a_at) / Fold change /veh CCDC152 (11751479_a_at) / RFU FAM211A (11726209_a_at) / Fold change /veh FAM211A (11726209_a_at) / RFU RGS16 (11746705_a_at) / Fold change /veh RGS16 (11746705_a_at) / RFU VCAN (11755009_s_at) / Fold change /veh VCAN (11755009_s_at) / RFU RHOB (11743442_s_at) / Fold change /veh RHOB (11743442_s_at) / RFU RGS16 (11720943_a_at) / Fold change /veh RGS16 (11720943_a_at) / RFU RGS16 (11720944_at) / Fold change /veh RGS16 (11720944_at) / RFU, VPS4B / Fold change vs veh, VPS4B / RFU, CREB1 / Fold change vs veh, CREB1 / RFU, DNAJC13 / Fold change vs veh, DNAJC13 / RFU, GNAQ / Fold change vs veh, GNAQ / RFU, CDK5R1 / Fold change vs veh, CDK5R1 / RFU, ZRANB3 / Fold change vs veh, ZRANB3 / RFU, CUL4A / Fold change vs veh, CUL4A / RFU, CCNY / Fold change vs veh, CCNY / RFU, UFL1 / Fold change vs veh, UFL1 / RFU, COG3 / Fold change vs veh, COG3 / RFU, DIAPH2 / Fold change vs veh, DIAPH2 / RFU, SKA2 / Fold change vs veh, SKA2 / RFU, AFF3 / Fold change vs veh, AFF3 / RFU, LMF1 / Fold change vs veh, LMF1 / RFU, IPO11 / Fold change vs veh, IPO11 / RFU, DFFB / Fold change vs veh, DFFB / RFU, FOXP1 / Fold change vs veh, FOXP1 / RFU, CARD8 / Fold change vs veh, CARD8 / RFU, STRN3 / Fold change vs veh, STRN3 / RFU, ADK / Fold change vs veh, ADK / RFU, RASSF2 / Fold change vs veh, RASSF2 / RFU, WIPF1 / Fold change vs veh, WIPF1 / RFU, LARP1B / Fold change vs veh, LARP1B / RFU, RASA1 / Fold change vs veh, RASA1 / RFU, RB1 / Fold change vs veh, RB1 / RFU, PPFIA1 / Fold change vs veh, PPFIA1 / RFU, MAT2A / Fold change vs veh, MAT2A / RFU, CCT5 / Fold change vs veh, CCT5 / RFU, WDR92 / Fold change vs veh, WDR92 / RFU, CUX1 / Fold change vs veh, CUX1 / RFU, TTC7A / Fold change vs veh, TTC7A / RFU, TMEM135 / Fold change vs veh, TMEM135 / RFU, DEPTOR / Fold change vs veh, DEPTOR / RFU, CPM / Fold change vs veh, CPM / RFU, DNAJB6 / Fold change vs veh, DNAJB6 / RFU, CACNA2D3 / Fold change vs veh, CACNA2D3 / RFU, DTX4 / Fold change vs veh, DTX4 / RFU, TFCP2 / Fold change vs veh, TFCP2 / RFU, GMCL1 /// GMCL1P1 / Fold change vs veh, GMCL1 /// GMCL1P1 / RFU, AEBP2 / Fold change vs veh, AEBP2 / RFU, SNHG1 /// SNORD22 /// SNORD25 /// SNORD26 /// SNORD27 /// SNORD28 /// SNORD29 /// SNORD31 / Fold change vs veh, SNHG1 /// SNORD22 /// SNORD25 /// SNORD26 /// SNORD27 /// SNORD28 /// SNORD29 /// SNORD31 / Fold change (Aza/veh), C12orf56 (ProbeSet 11735607_a_at) / Fold change (ACY-1035/veh), C12orf56 (ProbeSet 11735607_a_at) / Fold change (Aza/veh), FGFR1OP (ProbeSet 11751329_s_at) / Fold change (ACY-1035/veh), FGFR1OP (ProbeSet 11751329_s_at) / Fold change (Aza/veh), VPS36 (ProbeSet 11739960_a_at) / Fold change (ACY-1035/veh), VPS36 (ProbeSet 11739960_a_at) / RFU SYPL1 (11715823_x_at) / Fold change /veh SYPL1 (11715823_x_at) / RFU IGFBP7 (11715501_s_at) / Fold change /veh IGFBP7 (11715501_s_at) / RFU REEP3 (11722064_at) / Fold change /veh REEP3 (11722064_at) / RFU IGLL1 (11728026_x_at) / Fold change /veh IGLL1 (11728026_x_at): dose or concentration left out as unconfirmed. To be noted: ProbeSet 11719493_s_at; LIST B.

`Nc1ncn([C@@H]2O[C@H](CO)[C@@H](O)[C@H]2O)c(=O)n1` [azacitidine]: the “RFU, TAF9” value is reported as 607.12 RFU.

The values are drawn from article PMC5218480 (PLoS ONE, 2017).
